# Laboratory results published in ChEMBL document CHEMBL1201862, “PubChem BioAssay data set” (2004).
# The source made the active and inactive calls.
# Legend:
# [1] = target: T1, Sentrin-specific protease 6 (Homo sapiens, UniProt Q9GZR1); format: functional;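 also: Luminescence-based dose-response confirmatory assay of SENP6 inhibition, following up an ultra-high-throughput screen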
# T1 sequence (Q9GZR1 whole entry): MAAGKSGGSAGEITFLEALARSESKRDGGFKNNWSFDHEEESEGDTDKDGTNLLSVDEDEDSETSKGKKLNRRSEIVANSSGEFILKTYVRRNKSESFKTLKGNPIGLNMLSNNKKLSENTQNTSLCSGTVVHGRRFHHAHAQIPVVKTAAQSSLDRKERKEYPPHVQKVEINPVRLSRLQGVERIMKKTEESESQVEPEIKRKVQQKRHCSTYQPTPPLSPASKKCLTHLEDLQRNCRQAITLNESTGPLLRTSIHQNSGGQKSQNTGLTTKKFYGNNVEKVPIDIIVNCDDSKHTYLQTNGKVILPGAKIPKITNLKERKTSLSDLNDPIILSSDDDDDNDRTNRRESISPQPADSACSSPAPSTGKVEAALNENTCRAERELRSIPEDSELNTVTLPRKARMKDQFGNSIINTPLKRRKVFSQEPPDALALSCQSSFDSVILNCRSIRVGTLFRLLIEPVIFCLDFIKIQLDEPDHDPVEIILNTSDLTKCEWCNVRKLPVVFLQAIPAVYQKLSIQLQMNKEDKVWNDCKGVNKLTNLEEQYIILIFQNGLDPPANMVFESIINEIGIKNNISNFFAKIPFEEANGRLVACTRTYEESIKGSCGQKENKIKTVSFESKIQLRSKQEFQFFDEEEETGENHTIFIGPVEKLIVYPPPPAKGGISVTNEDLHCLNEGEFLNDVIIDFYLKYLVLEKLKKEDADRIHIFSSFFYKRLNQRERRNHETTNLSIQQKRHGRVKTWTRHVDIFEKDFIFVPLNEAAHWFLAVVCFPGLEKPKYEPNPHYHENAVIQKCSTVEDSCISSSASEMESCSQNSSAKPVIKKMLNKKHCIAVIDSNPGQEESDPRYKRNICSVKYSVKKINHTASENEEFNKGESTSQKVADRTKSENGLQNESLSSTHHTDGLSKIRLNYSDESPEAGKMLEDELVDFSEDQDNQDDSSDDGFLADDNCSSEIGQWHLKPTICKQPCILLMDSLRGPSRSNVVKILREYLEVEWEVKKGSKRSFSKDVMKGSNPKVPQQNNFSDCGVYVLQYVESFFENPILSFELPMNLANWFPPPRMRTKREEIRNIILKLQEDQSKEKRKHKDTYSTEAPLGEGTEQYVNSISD
# [2] = target: T2, Caspase-3 (Homo sapiens, UniProt P42574); format: functional;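 also: Dose-response selectivity test against caspase-3 for candidate inhibitors of sentrin-specific proteases (SENPs)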
# T2 sequence (P42574 whole entry): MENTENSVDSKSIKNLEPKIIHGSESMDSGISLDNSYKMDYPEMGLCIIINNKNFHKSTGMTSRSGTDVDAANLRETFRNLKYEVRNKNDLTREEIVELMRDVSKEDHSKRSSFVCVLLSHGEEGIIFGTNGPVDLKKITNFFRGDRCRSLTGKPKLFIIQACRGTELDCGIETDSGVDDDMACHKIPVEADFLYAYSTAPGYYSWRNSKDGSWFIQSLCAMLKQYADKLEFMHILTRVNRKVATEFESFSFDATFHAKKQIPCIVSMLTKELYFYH
# [3] = target: T3, Sentrin-specific protease 8 (Homo sapiens, UniProt Q96LD8); format: functional;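 also: luminescence read-out of SENP8 inhibition, dose-response confirmation following an ultra-high-throughput screen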
# T3 sequence (Q96LD8 whole entry): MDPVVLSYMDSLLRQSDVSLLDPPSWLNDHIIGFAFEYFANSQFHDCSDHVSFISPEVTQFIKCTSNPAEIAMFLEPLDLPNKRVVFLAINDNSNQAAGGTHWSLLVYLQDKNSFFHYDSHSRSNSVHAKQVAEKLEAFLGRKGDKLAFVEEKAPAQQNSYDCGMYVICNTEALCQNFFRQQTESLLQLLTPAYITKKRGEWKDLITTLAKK
# [4] = target: T4, Sentrin-specific protease 7 (Homo sapiens, UniProt Q9BQF6); format: functional;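 also: Luminescence-based dose-response confirmation of ultra-high-throughput screening hits, measuring inhibition of SENP7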
# T4 sequence (Q9BQF6 whole entry): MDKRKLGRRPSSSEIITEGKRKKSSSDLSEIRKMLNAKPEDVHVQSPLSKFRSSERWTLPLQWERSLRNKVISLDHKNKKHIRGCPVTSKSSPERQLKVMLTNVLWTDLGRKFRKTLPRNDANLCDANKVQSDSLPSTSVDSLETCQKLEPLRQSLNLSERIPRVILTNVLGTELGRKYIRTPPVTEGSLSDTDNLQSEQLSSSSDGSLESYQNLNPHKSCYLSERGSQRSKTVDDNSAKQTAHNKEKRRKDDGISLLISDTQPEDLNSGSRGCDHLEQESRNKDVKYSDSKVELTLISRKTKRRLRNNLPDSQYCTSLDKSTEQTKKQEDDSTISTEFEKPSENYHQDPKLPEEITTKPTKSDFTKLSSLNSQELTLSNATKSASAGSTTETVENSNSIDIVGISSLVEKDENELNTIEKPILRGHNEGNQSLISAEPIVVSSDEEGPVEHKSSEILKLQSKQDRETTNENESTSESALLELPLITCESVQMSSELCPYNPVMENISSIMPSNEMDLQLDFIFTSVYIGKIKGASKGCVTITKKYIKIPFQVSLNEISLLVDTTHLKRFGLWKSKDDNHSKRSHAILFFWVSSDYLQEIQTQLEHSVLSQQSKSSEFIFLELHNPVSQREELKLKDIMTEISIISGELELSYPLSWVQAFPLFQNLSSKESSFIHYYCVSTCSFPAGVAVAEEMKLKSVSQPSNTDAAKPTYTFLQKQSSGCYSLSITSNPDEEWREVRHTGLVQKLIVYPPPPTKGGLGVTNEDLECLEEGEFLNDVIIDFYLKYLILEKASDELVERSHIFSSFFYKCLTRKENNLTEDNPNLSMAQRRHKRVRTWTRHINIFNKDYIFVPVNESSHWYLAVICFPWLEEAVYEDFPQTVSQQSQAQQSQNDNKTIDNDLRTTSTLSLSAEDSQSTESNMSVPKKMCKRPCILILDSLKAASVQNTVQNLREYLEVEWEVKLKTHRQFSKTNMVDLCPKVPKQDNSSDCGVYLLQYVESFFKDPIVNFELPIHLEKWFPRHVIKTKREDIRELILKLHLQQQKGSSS
# [5] = target: T5, Mitochondrial peptide methionine sulfoxide reductase (Bos taurus, UniProt P54149); experiment: Absorbance-based biochemical high throughput dose response assay for activators of Methionine sulfoxide reductase A (MsrA).; format: functional
# T5 sequence (P54149 whole entry): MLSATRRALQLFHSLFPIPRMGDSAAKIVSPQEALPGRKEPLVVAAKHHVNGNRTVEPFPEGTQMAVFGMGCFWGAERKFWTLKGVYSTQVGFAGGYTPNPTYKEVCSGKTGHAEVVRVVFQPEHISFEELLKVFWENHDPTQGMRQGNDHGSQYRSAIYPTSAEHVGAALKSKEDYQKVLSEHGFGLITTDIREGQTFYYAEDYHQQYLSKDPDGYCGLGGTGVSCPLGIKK
# [6] = target: T6, Low molecular weight phosphotyrosine protein phosphatase (Homo sapiens, UniProt P24666); format: functional; conditions: read-out: IC50_Mean;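 also: Dose-response confirmation assay measuring inhibition of LMPTP enzyme activity by fluorescence intensity read-out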
# T6 sequence (P24666 whole entry): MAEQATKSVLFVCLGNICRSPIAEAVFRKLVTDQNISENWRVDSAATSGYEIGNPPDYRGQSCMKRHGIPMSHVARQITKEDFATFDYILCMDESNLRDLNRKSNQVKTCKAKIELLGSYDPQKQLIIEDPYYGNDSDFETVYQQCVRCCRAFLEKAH
# [7] = target: T7, Ubiquitin-conjugating enzyme E2 N (Homo sapiens, UniProt P61088); format: functional;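 also: Dose-response confirmation in a TR-FRET assay detecting UBC13-driven polyubiquitin chain formation, inhibition measured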
# T7 sequence (P61088 whole entry): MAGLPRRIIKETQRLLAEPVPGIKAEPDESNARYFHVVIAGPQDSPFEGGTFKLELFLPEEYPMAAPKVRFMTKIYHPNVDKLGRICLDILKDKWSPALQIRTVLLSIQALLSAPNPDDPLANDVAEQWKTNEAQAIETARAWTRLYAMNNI
# [8] = target: Albumin (Bos taurus, UniProt P02769); experiment: Counterscreen for inhibitors of T-cell receptor (TCR)-CD3 interaction: Fluorescence-based biochemical high throughput dose response assay to identify inhibitors of T-cell receptor (TCR)-CD3 interaction using a TAMRA-labeled BSA probe.; format: functional
# [9] = target: T8, DNA repair protein RAD52 homolog (Homo sapiens, UniProt P43351); format: functional, biochemical
# T8 sequence (P43351 whole entry): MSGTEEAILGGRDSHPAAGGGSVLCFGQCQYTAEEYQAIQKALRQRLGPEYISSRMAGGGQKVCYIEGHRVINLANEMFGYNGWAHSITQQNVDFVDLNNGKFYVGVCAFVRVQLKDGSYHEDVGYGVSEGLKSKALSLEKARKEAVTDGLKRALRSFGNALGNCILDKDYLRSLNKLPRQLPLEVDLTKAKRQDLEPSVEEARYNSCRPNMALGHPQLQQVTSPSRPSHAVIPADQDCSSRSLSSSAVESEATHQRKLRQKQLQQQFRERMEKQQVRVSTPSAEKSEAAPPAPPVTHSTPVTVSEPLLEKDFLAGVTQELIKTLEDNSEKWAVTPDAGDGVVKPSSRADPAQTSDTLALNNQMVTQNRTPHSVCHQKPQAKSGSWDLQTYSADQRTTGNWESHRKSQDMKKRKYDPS
# [10] = target: T9, Corticotropin-releasing factor receptor 2/Corticotropin-releasing factor-binding protein (Homo sapiens, UniProt P24387+Q13324); experiment: Dose Response confirmation of uHTS hits for small molecule antagonists of the CRF-binding protein and CRF-R2 receptor complex.; format: functional; conditions: read-out: IC50_Mean
# T9 sequence (Q13324 whole entry): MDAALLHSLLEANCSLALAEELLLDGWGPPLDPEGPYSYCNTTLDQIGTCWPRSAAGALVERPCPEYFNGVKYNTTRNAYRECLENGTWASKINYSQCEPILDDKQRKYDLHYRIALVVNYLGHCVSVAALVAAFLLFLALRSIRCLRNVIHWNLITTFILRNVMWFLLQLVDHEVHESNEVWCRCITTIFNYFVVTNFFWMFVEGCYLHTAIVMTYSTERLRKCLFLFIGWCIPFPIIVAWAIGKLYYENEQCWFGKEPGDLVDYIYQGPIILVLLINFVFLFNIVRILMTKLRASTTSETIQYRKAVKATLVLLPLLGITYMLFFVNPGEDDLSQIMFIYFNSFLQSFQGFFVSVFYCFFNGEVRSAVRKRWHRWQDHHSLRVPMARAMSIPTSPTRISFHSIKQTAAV
# T9 sequence (P24387 whole entry): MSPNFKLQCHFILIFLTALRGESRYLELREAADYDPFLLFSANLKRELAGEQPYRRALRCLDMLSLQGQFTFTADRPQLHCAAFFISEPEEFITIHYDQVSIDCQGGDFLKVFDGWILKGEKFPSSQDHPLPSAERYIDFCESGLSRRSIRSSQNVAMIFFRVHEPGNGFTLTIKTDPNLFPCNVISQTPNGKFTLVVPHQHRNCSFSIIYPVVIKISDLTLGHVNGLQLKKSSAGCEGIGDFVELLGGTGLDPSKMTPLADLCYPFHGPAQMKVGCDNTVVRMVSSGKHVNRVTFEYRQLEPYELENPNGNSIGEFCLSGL
# [11] = target: T9, Corticotropin-releasing factor receptor 2/Corticotropin-releasing factor-binding protein; experiment: activators of CRF receptor 2 with binding protein – uHTS hits, confirmation (AID 602473); format: functional; conditions: read-out: EC50_Mean
# [12] = CRF-BP/CRF-R2 complex antagonists, dose response, cell-based, uHTS hits, 384-well (AID 651639); format: functional, Homo sapiens; conditions: read-out: IC50_Mean
# [13] = target: Tyrosine-protein phosphatase non-receptor type 5 (Homo sapiens, UniProt P54829); experiment: STEP phosphatase inhibitors, confirmation, biochemical, fluorescence intensity, uHTS hits (AID 602372); format: functional; conditions: read-out: IC50_Mean
# [14] = target: Tyrosine-protein phosphatase non-receptor type 11 (Homo sapiens, UniProt Q06124); experiment: SHP2 phosphatase inhibition, dose response, selectivity assay for STEP inhibitor project, biochemical (AID 602367); format: functional; conditions: read-out: IC50_Mean
# [15] = target: Dual specificity protein phosphatase 3 (Homo sapiens, UniProt P51452); experiment: VHR phosphatase inhibition, dose response, selectivity assay for STEP inhibitor project, biochemical (AID 602374); format: functional; conditions: read-out: IC50_Mean
# [16] = target: DNA repair and recombination protein RAD54-like (Homo sapiens, UniProt Q92698); experiment: inhibitors of human RAD54 branch migration, confirmation, biochemical, fluorescence, cherry-picked samples, dose series (AID 651657); format: functional
# [17] = target: DNA (cytosine-5)-methyltransferase 1 (Homo sapiens, UniProt P26358); experiment: DNMT1 methyltransferase inhibitors, confirmation, biochemical, fluorescent molecular beacon (AID 602386); format: functional
# Chain of DNA (cytosine-5)-methyltransferase 1 (P26358 whole entry): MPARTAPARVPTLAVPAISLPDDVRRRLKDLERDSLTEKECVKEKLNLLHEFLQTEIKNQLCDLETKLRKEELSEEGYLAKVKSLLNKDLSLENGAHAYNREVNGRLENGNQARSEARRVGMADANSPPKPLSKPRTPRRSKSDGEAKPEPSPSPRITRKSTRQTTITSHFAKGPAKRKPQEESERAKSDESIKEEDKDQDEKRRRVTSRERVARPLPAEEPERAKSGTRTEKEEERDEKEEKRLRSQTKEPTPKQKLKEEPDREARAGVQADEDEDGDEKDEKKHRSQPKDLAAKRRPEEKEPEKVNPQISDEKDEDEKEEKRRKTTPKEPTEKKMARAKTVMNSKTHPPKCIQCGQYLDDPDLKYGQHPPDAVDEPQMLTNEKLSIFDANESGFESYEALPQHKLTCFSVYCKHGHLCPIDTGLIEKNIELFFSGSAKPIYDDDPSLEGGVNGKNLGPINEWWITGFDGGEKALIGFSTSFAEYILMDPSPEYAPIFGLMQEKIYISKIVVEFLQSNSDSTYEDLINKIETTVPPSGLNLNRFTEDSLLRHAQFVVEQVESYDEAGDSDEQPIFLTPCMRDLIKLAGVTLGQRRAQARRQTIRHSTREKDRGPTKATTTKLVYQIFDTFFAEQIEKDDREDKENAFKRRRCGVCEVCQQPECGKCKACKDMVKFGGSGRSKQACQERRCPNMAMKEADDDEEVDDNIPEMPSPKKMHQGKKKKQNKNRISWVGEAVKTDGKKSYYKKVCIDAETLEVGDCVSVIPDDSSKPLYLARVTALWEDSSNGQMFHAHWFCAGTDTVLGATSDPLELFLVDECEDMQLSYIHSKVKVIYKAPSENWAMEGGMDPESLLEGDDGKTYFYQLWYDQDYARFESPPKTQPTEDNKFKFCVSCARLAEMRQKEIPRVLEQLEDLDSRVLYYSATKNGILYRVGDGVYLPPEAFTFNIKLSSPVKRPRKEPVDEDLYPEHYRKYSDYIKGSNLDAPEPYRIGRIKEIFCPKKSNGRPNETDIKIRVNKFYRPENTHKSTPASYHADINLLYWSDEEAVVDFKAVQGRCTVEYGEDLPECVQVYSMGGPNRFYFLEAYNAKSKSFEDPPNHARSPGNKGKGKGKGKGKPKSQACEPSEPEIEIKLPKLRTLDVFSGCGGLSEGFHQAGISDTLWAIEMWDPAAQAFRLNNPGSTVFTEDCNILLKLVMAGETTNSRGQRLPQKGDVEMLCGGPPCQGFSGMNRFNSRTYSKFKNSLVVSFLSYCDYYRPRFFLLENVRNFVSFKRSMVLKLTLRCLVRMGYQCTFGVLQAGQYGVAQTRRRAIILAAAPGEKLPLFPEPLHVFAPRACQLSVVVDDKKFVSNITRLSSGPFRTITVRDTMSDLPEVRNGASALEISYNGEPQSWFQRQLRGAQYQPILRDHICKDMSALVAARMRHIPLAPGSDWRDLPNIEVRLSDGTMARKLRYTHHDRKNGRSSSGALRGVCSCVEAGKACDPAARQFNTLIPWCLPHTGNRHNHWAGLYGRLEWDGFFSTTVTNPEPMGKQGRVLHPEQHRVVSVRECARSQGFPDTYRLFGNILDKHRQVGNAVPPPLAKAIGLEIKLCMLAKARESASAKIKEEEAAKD
# Chain of Dual specificity protein phosphatase 3 (P51452 whole entry): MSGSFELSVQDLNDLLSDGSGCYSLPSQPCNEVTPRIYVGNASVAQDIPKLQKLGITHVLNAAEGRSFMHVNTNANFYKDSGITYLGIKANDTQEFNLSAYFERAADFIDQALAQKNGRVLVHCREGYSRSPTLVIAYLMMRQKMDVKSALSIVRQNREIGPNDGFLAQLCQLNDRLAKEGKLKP
# Chain of DNA repair and recombination protein RAD54-like (Q92698 whole entry): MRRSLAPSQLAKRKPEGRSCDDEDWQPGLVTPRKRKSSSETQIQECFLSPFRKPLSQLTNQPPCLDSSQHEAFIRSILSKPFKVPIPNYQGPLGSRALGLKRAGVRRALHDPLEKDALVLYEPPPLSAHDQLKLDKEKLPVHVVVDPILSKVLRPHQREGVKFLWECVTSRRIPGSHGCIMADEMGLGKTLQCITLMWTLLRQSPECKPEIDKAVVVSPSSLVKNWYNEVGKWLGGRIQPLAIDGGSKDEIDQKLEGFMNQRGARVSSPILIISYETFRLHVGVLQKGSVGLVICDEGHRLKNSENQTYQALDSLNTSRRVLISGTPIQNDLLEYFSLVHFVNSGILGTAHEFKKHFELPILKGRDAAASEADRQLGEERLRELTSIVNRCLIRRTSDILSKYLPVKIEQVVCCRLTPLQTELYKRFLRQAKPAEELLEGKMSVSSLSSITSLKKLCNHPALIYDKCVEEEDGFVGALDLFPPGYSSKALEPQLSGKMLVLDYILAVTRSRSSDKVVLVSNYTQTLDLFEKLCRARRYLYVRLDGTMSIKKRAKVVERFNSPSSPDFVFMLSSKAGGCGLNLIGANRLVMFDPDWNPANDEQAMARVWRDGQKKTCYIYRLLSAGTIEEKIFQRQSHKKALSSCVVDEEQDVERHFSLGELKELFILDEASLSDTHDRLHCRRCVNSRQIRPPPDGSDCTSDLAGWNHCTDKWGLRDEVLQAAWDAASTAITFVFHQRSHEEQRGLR
# Chain of Albumin (P02769 whole entry): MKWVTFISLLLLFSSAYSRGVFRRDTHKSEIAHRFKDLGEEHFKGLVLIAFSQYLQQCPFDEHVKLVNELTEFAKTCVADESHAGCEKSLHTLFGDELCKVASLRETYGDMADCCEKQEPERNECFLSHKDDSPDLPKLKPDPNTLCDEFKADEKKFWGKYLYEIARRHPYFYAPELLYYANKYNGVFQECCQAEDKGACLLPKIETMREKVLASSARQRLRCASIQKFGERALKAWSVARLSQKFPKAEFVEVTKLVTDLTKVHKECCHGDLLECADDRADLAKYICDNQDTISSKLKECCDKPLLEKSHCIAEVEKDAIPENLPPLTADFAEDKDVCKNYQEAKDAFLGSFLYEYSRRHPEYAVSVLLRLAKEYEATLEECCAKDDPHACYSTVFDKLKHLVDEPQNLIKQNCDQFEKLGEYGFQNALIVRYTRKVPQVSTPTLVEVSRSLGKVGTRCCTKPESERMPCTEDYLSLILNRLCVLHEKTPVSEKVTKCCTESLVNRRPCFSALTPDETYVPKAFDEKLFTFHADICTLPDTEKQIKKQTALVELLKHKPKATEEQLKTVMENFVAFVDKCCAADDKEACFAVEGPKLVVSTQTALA
# Chain of Tyrosine-protein phosphatase non-receptor type 11 (Q06124 whole entry): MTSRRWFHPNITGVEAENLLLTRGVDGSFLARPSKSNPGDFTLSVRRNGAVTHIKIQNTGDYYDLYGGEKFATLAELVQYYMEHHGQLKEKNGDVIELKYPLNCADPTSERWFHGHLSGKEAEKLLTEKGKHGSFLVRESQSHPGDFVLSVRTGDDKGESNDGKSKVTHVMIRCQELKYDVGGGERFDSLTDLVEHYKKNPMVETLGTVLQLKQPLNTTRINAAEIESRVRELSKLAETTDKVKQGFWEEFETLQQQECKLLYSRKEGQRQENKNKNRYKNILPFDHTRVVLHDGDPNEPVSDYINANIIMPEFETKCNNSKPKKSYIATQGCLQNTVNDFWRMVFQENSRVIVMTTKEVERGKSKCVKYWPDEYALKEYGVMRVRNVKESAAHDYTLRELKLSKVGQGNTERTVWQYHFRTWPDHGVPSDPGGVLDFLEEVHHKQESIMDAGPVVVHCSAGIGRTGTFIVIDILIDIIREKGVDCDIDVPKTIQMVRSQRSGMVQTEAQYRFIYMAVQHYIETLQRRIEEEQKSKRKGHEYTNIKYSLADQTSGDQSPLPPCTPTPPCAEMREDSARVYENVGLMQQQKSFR
# Chain of Tyrosine-protein phosphatase non-receptor type 5 (P54829 whole entry): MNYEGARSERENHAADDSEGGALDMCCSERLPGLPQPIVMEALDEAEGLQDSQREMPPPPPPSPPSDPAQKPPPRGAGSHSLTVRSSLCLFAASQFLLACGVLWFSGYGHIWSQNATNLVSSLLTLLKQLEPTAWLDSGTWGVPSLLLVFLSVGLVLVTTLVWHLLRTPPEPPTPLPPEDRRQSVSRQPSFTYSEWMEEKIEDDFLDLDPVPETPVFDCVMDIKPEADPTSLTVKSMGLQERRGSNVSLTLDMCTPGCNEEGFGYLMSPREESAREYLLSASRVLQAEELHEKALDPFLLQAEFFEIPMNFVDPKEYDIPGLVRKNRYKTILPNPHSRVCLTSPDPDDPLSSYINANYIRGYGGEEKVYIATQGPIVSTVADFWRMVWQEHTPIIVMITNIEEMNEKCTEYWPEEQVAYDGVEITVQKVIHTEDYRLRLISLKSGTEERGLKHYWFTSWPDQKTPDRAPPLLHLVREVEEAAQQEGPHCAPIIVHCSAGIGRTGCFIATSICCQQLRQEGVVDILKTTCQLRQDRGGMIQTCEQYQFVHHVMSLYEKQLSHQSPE
structure (smiles),measurement,setting,value
COc1ccc(S(=O)(=O)N2CCOCC2)cc1NC(=O)COC(=O)c1ccc([N+](=O)[O-])s1,IC50,[1],6.27 µM (active)
same,IC50,[2],17.1 µM (active)
same,IC50,[3],6.06 µM (active)
same,IC50,[4],9.28 µM (active)
same,EC50,[5],40 µM (inactive)
Cc1ccc(-c2nc3cc(C(=O)NCCCn4ccnc4)ccc3c(O)c2O)cc1,IC50,[6],16 µM (active)
same,IC50,[7],> 20 µM (inactive)
same,IC50,[8],> 94.1 µM (inactive)
same,AC50,[9],7.05 µM (active)
O=C(COC(=O)C1(c2ccc(F)cc2)CCCC1)NCc1ccc2c(c1)OCO2,IC50,[10],< 368 nM (active)
same,EC50,[11],> 53 µM (inactive)
same,IC50,[12],11.1 µM (active)
COc1cc(Cl)ccc1N=C(S)N(CCCN1CCOCC1)Cc1cn(C)c2ccccc12,IC50,[13],20.8 µM (inactive)
same,IC50,[14],2.07 µM (active)
same,IC50,[15],1.03 µM (active)
O=C(Nc1ccccc1)c1cc(S(=O)(=O)N2CCOCC2)cs1,AC50,[16],70.3 µM (active)
O=C1Nc2c(Cl)cc(Cl)cc2C1=O,IC50,[17],11.8 µM (active)
same,EC50,[5],> 104 µM (inactive)
